Legend:
Format in all cases: in vivo
Wheat [1] = assay: Preemergence Herbicidal Activity, Wheat; details: Triticum aestivum, pre-emergence; for plant injury at 1000 g/ha: 1.0 kg/ha
How it was run: (§1)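 Percent control of the crop served as the read-out, with dosing stated in kilograms per hectare.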

Rice [2] = assay: Preemergence Herbicidal Activity, Rice; details: Oryza sativa, pre-emergence; for plant injury at 1000 g/ha: 1.0 kg/ha
How it was run: as §1

Wheat [3] = assay: Postemergence Herbicidal Activity, Wheat; details: Triticum aestivum, post-emergence; for plant injury at 1000 g/ha: 1.0 kg/ha
How it was run: as §1

Velvetleaf [4] = assay: Preemergence Herbicidal Activity, Velvetleaf; details: Abutilon theophrasti, pre-emergence; for pest or weed control at 1000 g/ha: 1.0 kg/ha
How it was run: (§2)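 Read-out is percent control (% C) at application rates expressed in kilograms per hectare. Compounds were generally delivered in a 50/50 acetone/water solution, either before emergence or onto emerged plants.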

Cotton [5] = assay: Preemergence Herbicidal Activity, Cotton; details: Gossypium hirsutum, pre-emergence; for plant injury at 1000 g/ha: 1.0 kg/ha
How it was run: as §2

Morningglory [6] = assay: Postemergence Herbicidal Activity, Morningglory; details: Ipomoea, post-emergence; for pest or weed control at 1000 g/ha: 1.0 kg/ha
How it was run: as §2

Johnsongrass [7] = assay: Preemergence Herbicidal Activity, Johnsongrass; details: Sorghum halepense, pre-emergence; for pest or weed control at 1000 g/ha: 1.0 kg/ha
How it was run: (§3)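 Application rate is expressed per hectare in kilograms. Values are percent control.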

Barnyardgrass [8] = assay: Postemergence Herbicidal Activity, Barnyardgrass; details: Echinochloa crus-galli, post-emergence; for pest or weed control at 1000 g/ha: 1.0 kg/ha
How it was run: as §3

Soybean [9] = assay: Preemergence Herbicidal Activity, Soybean; details: Glycine max, pre-emergence; for plant injury at 1000 g/ha: 1.0 kg/ha
How it was run: as §1

Rice [10] = assay: Postemergence Herbicidal Activity, Rice; details: Oryza sativa, post-emergence; for plant injury at 1000 g/ha: 1.0 kg/ha
How it was run: as §1

Morningglory [11] = assay: Preemergence Herbicidal Activity, Morningglory; details: Ipomoea, pre-emergence; for pest or weed control at 1000 g/ha: 1.0 kg/ha
How it was run: as §2

Green Foxtail [12] = assay: Postemergence Herbicidal Activity, Green Foxtail; details: Setaria viridis, post-emergence; for pest or weed control at 1000 g/ha: 1.0 kg/ha
How it was run: as §3

Field Corn [13] = assay: Preemergence Herbicidal Activity, Field Corn; details: Zea mays, pre-emergence; for plant injury at 1000 g/ha: 1.0 kg/ha
How it was run: as §1

Green Foxtail [14] = assay: Preemergence Herbicidal Activity, Green Foxtail; details: Setaria viridis, pre-emergence; for pest or weed control at 1000 g/ha: 1.0 kg/ha
How it was run: as §3

Field Bindweed [15] = assay: Preemergence Herbicidal Activity, Field Bindweed; details: pre-emergence; for pest or weed control at 1000 g/ha: 1.0 kg/ha
How it was run: as §2

Field Corn [16] = assay: Postemergence Herbicidal Activity, Field Corn; details: Zea mays, post-emergence; for plant injury at 1000 g/ha: 1.0 kg/ha
How it was run: as §1

Soybean [17] = assay: Postemergence Herbicidal Activity, Soybean; details: Glycine max, post-emergence; for plant injury at 1000 g/ha: 1.0 kg/ha
How it was run: as §1

Johnsongrass [18] = assay: Postemergence Herbicidal Activity, Johnsongrass; details: Sorghum halepense, post-emergence; for pest or weed control at 1000 g/ha: 1.0 kg/ha
How it was run: as §3

Cotton [19] = assay: Postemergence Herbicidal Activity, Cotton; details: Gossypium hirsutum, post-emergence; for plant injury at 1000 g/ha: 1.0 kg/ha
How it was run: as §2

Field Bindweed [20] = assay: Postemergence Herbicidal Activity, Field Bindweed; details: post-emergence; for pest or weed control at 1000 g/ha: 1.0 kg/ha
How it was run: as §2

Barnyardgrass [21] = assay: Preemergence Herbicidal Activity, Barnyardgrass; details: Echinochloa crus-galli, pre-emergence; for pest or weed control at 1000 g/ha: 1.0 kg/ha
How it was run: as §3

Velvetleaf [22] = assay: Postemergence Herbicidal Activity, Velvetleaf; details: Abutilon theophrasti, post-emergence; for pest or weed control at 1000 g/ha: 1.0 kg/ha
How it was run: as §2

**Q.** Which results are given for CCS(=O)(=O)Nc1cc(-n2nnn(CCCF)c2=O)c(Cl)cc1F [Compound 39, 1-[2-Chloro-4-fluoro-5-(N--ethylsulfonylamino)phenyl]-4,5-dihydro-4-(3-fluoropropyl)-5H--tetrazol-5-one]?
**A.** plant injury at 1000 g/ha (Wheat [1]): 20%; plant injury at 1000 g/ha (Rice [2]): 10%; plant injury at 1000 g/ha (Wheat [3]): 30%; pest or weed control at 1000 g/ha (Velvetleaf [4]): 100%; plant injury at 1000 g/ha (Cotton [5]): 50%; pest or weed control at 1000 g/ha (Morningglory [6]): 100%; pest or weed control at 1000 g/ha (Johnsongrass [7]): 10%; pest or weed control at 1000 g/ha (Barnyardgrass [8]): 50%; plant injury at 1000 g/ha (Soybean [9]): 10%; plant injury at 1000 g/ha (Rice [10]): 20%; pest or weed control at 1000 g/ha (Morningglory [11]): 100%; pest or weed control at 1000 g/ha (Green Foxtail [12]): 50%; plant injury at 1000 g/ha (Field Corn [13]): 70%; pest or weed control at 1000 g/ha (Green Foxtail [14]): 50%; pest or weed control at 1000 g/ha (Field Bindweed [15]): 70%; plant injury at 1000 g/ha (Field Corn [16]): 50%; plant injury at 1000 g/ha (Soybean [17]): 95%; pest or weed control at 1000 g/ha (Johnsongrass [18]): 50%; plant injury at 1000 g/ha (Cotton [19]): 100%; pest or weed control at 1000 g/ha (Field Bindweed [20]): 100%; pest or weed control at 1000 g/ha (Barnyardgrass [21]): 60%; pest or weed control at 1000 g/ha (Velvetleaf [22]): 100%

**Q.** With CCS(=O)(=O)N(c1cc(-n2nnn(CCCF)c2=O)c(F)cc1Br)S(=O)(=O)CC [Compound 22, 1-[4-bromo-2-fluoro-5-[bis(N--ehtylsulfonyl)amino]phenyl]-1,4-dihydro-4-(3-fluoropropyl)-5H--tetrazol-5-one] as the compound, how does the plant injury at 1000 g/ha (Wheat [1]) read?
**A.** 90%

**Q.** And the plant injury at 1000 g/ha (Rice [2])?
**A.** 80%

**Q.** What about the plant injury at 1000 g/ha (Wheat [3]) of the same compound?
**A.** 90%

**Q.** What about the pest or weed control at 1000 g/ha (Velvetleaf [4]) of the same compound?
**A.** 100%

**Q.** And the plant injury at 1000 g/ha (Cotton [5])?
**A.** 100%

**Q.** And the pest or weed control at 1000 g/ha (Morningglory [6])?
**A.** 95%

**Q.** And the pest or weed control at 1000 g/ha (Johnsongrass [7])?
**A.** 100%

**Q.** And the pest or weed control at 1000 g/ha (Barnyardgrass [8])?
**A.** 100%

**Q.** And the plant injury at 1000 g/ha (Soybean [9])?
**A.** 60%

**Q.** What about the plant injury at 1000 g/ha (Rice [10]) of the same compound?
**A.** 80%

**Q.** And the pest or weed control at 1000 g/ha (Morningglory [11])?
**A.** 100%

**Q.** And the pest or weed control at 1000 g/ha (Green Foxtail [12])?
**A.** 100%

**Q.** What about the plant injury at 1000 g/ha (Field Corn [13]) of the same compound?
**A.** 95%

**Q.** And the pest or weed control at 1000 g/ha (Green Foxtail [14])?
**A.** 100%

**Q.** What about the pest or weed control at 1000 g/ha (Field Bindweed [15]) of the same compound?
**A.** 100%

**Q.** And the plant injury at 1000 g/ha (Field Corn [16])?
**A.** 100%

**Q.** And the plant injury at 1000 g/ha (Soybean [17])?
**A.** 95%

**Q.** What about the pest or weed control at 1000 g/ha (Johnsongrass [18]) of the same compound?
**A.** 100%

**Q.** What about the plant injury at 1000 g/ha (Cotton [19]) of the same compound?
**A.** 100%

**Q.** And the pest or weed control at 1000 g/ha (Field Bindweed [20])?
**A.** 95%

**Q.** What about the pest or weed control at 1000 g/ha (Barnyardgrass [21]) of the same compound?
**A.** 100%

**Q.** And the pest or weed control at 1000 g/ha (Velvetleaf [22])?
**A.** 100%

**Q.** What does the source list for CS(=O)(=O)N(c1cc(-n2nnn(CCCF)c2=O)c(F)cc1F)S(C)(=O)=O [Compound 8, 1-[2,4-difluoro-5-[bis(N--methylsulfonyl)amino]phenyl]-1,4-dihydro-4-(3-fluoropropyl)-5H--tetrazol-5-one]?
**A.** plant injury at 500 g/ha (Wheat [1]; 0.5 kg/ha): 10%; plant injury at 500 g/ha (Rice [2]; 0.5 kg/ha): 70%; plant injury at 500 g/ha (Wheat [3]; 0.5 kg/ha): 30%; pest or weed control at 500 g/ha (Velvetleaf [4]; 0.5 kg/ha): 100%; plant injury at 500 g/ha (Cotton [5]; 0.5 kg/ha): 95%; pest or weed control at 500 g/ha (Morningglory [6]; 0.5 kg/ha): 40%; pest or weed control at 500 g/ha (Johnsongrass [7]; 0.5 kg/ha): 50%; pest or weed control at 500 g/ha (Barnyardgrass [8]; 0.5 kg/ha): 40%; plant injury at 500 g/ha (Soybean [9]; 0.5 kg/ha): 30%; plant injury at 500 g/ha (Rice [10]; 0.5 kg/ha): 20%; pest or weed control at 500 g/ha (Morningglory [11]; 0.5 kg/ha): 60%; pest or weed control at 500 g/ha (Green Foxtail [12]; 0.5 kg/ha): 50%; plant injury at 500 g/ha (Field Corn [13]; 0.5 kg/ha): 40%; pest or weed control at 500 g/ha (Green Foxtail [14]; 0.5 kg/ha): 50%; pest or weed control at 500 g/ha (Field Bindweed [15]; 0.5 kg/ha): 40%; plant injury at 500 g/ha (Field Corn [16]; 0.5 kg/ha): 50%; plant injury at 500 g/ha (Soybean [17]; 0.5 kg/ha): 40%; pest or weed control at 500 g/ha (Johnsongrass [18]; 0.5 kg/ha): 30%; plant injury at 500 g/ha (Cotton [19]; 0.5 kg/ha): 95%; pest or weed control at 500 g/ha (Field Bindweed [20]; 0.5 kg/ha): 30%; pest or weed control at 500 g/ha (Barnyardgrass [21]; 0.5 kg/ha): 40%; pest or weed control at 500 g/ha (Velvetleaf [22]; 0.5 kg/ha): 95%

— patent publication US4868321A, “Isothiocyanate intermediates” (FMC Corporation, priority 1988, dated 1989)
